Holding throughout (assay type): biochemical
The target in one assay is JAK2 (Homo sapiens, UniProt O60674). Put plainly: JAK 2 enzymatic inhibitory activity IC50 assay (Caliper conversion rate). To be noted: Km ATP, 28° C., 1 hour. In short, it runs like this:
(§1)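 Human JAK1 or JAK2 enzyme was preincubated with graded compound (2% DMSO) in HEPES pH 7.5/Brij-35/DTT buffer (JAK1 also with Triton), then peptide substrate, 10 mM MgCl2 and ATP at Km were added. Reactions ran 1 hour at 28° C; Caliper conversion rate gave inhibition, averaged over two tests, for IC50.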

For another assay, the target named is JAK1 (Homo sapiens, UniProt P23458). Kind of assay: JAK 1 enzymatic inhibitory activity IC50 assay (Caliper conversion rate). To be noted: Km ATP, 28° C., 1 hour. In short, it runs like this: as §1
In a further assay the target is T1, JAK3 (Homo sapiens, UniProt P52333).
T1 sequence (P52333 1-1124): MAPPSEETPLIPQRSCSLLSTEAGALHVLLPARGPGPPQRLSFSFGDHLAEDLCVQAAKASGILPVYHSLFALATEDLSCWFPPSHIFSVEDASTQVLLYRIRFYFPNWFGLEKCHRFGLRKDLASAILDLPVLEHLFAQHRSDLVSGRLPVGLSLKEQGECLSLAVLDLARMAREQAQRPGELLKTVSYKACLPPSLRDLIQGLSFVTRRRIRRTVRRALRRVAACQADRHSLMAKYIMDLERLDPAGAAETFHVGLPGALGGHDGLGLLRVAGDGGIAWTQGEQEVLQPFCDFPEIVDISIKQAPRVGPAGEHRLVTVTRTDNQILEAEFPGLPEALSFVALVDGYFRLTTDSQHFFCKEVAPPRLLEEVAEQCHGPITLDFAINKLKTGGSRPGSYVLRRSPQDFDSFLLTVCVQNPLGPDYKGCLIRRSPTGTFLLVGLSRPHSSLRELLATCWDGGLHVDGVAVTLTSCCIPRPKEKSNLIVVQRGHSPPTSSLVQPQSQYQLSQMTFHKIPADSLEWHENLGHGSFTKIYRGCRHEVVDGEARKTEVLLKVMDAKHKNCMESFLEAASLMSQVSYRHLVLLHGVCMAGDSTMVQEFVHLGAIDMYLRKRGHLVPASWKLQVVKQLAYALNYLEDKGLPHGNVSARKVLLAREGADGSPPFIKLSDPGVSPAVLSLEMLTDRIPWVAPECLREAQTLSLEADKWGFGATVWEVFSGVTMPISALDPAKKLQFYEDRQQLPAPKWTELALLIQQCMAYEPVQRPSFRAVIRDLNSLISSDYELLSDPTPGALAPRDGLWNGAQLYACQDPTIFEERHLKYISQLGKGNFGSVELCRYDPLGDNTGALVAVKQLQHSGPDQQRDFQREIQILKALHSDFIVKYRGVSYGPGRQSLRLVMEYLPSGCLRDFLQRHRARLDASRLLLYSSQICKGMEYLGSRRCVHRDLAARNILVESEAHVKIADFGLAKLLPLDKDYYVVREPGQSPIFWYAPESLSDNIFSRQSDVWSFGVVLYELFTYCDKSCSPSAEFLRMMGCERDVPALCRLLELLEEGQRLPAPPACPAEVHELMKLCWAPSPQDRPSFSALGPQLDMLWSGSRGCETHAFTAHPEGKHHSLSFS
Kind of assay: JAK 3 enzymatic inhibitory activity IC50 assay (Caliper conversion rate). To be noted: Km ATP, 28° C., 1 hour; read-out: JAK 3 enzymatic inhibitory activity IC50.

Each structure is given as a SMILES string.

JAK2, sequence (O60674 whole entry, species assumed): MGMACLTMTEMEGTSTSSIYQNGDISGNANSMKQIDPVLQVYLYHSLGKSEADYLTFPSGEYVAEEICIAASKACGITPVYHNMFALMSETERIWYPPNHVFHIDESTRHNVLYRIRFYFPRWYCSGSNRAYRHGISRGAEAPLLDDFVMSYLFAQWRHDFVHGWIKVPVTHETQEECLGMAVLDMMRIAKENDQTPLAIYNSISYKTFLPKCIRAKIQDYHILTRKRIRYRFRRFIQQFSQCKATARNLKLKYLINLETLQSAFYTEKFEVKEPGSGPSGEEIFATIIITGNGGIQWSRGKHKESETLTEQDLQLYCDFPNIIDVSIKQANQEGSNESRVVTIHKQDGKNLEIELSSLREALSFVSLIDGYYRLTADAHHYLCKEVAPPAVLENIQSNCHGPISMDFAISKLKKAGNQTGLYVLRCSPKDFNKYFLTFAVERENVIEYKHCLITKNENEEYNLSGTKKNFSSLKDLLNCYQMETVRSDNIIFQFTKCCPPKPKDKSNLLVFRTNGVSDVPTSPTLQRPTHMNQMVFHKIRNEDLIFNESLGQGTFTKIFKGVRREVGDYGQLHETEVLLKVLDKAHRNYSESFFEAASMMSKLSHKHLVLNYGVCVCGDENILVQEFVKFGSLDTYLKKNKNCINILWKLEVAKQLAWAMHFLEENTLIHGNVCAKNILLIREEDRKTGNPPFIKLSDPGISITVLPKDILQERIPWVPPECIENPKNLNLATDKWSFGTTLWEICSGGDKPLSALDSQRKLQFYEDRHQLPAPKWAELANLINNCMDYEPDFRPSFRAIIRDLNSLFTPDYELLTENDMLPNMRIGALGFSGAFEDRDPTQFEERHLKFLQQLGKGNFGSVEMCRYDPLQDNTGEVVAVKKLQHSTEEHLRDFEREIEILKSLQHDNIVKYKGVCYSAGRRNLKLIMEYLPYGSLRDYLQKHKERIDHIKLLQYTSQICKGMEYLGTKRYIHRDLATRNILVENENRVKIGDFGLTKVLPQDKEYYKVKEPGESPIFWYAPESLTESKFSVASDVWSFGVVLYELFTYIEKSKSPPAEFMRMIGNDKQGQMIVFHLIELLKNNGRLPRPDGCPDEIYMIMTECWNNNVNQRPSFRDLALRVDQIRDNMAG
JAK1, sequence (P23458 whole entry, species assumed): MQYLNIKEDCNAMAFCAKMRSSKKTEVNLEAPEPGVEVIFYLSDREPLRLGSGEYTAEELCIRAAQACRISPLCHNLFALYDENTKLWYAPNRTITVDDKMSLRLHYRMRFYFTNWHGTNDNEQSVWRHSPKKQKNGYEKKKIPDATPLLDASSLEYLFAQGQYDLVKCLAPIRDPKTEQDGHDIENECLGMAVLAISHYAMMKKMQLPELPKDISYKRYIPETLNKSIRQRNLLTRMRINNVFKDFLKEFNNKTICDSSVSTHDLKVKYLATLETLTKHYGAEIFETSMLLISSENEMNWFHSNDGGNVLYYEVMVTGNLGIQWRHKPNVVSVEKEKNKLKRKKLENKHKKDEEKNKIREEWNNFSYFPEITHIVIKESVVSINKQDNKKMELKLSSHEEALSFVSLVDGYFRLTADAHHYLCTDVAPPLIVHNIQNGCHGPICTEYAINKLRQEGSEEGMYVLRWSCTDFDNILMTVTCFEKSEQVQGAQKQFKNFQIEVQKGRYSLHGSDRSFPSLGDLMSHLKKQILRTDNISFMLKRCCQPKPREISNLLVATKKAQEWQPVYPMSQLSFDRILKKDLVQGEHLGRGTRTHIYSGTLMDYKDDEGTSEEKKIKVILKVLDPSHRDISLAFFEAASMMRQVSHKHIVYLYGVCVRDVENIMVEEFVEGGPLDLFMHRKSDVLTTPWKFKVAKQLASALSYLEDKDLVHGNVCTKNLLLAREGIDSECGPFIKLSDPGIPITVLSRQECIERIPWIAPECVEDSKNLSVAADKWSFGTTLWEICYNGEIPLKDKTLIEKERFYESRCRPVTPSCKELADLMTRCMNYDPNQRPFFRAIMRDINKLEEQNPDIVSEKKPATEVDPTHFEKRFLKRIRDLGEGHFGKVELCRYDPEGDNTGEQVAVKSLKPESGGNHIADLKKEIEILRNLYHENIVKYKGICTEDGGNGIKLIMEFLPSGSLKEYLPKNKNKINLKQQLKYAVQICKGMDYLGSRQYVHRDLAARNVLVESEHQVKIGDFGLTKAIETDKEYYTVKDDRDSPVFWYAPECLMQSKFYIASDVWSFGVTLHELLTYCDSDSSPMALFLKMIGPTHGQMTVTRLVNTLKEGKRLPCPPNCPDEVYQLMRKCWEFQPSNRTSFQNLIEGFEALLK

In the case of `CCS(=O)(=O)N1CC(CC#N)(n2cc(-c3nc(Nc4ccc(-c5nn[nH]n5)cc4)nc4ccsc34)cn2)C1` [Compound T-45, 2-(3-(4-(2-((4-(2H-Tetrazol-5-yl)phenyl)amino)thieno[3,2-d]pyrimidin-4-yl)-1H-pyrazol-1-yl)-1-(ethylsulfonyl)azetidin-3-yl)acetonitrile], the results for the IC50 against JAK2, against JAK1 and on JAK3 were less than 50 nM, less than 50 nM and 50 to 500 nM, respectively.

For the compound `CCC(=O)N1CC(CC#N)(n2cc(-c3nc(Nc4cnn(C)c4)nc4ccsc34)cn2)C1` [Compound T-46, 2-(3-(4-(2-((1-Methyl-1H-pyrazol-4-yl)amino)thieno[3,2-d]pyrimidin-4-yl)-1H-pyrazol-1-yl)-1-propionylazetidin-3-yl)acetonitrile], the IC50 against JAK2 was less than 50 nM; against JAK1 it was 50 to 500 nM; on JAK3, 500 to 1000 nM.

`CCS(=O)(=O)N1CC(CC#N)(n2cc(-c3nc(Nc4ccnnc4)nc4ccsc34)cn2)C1` [Compound T-47, 2-(1-(Ethylsulfonyl)-3-(4-(2-(pyridazin-4-ylamino)thieno[3,2-d]pyrimidin-4-yl)-1H-pyrazol-1-yl)azetidin-3-yl)acetonitrile]: the IC50 is 500 to 1000 nM at JAK2, 500 to 1000 nM against JAK1 and greater than 1000 nM at JAK3.

For the compound `CCS(=O)(=O)N1CC(CC#N)(n2cc(-c3nc(Nc4cn(C)cn4)nc4ccsc34)cn2)C1` [Compound T-48, 2-(1-(Ethylsulfonyl)-3-(4-(2-((1-methyl-1H-imidazol-4-yl)amino)thieno[3,2-d]pyrimidin-4-yl)-1H-pyrazol-1-yl)azetidin-3-yl)acetonitrile], the IC50 at JAK2 is 50 to 500 nM; against JAK1, greater than 1000 nM; at JAK3, greater than 1000 nM.

`Cn1cc(Nc2nc(-c3cnn(C4(CC#N)CN(C(=O)CO)C4)c3)c3sccc3n2)cn1` [Compound T-49, 2-(1-(2-Hydroxyacetyl)-3-(4-(2-((1-methyl-1H-pyrazol-4-yl)amino)thieno[3,2-d]pyrimidin-4-yl)-1H-pyrazol-1-yl)azetidin-3-yl)acetonitrile]: the IC50 at JAK2 is less than 50 nM; on JAK1, 500 to 1000 nM; at JAK3, 500 to 1000 nM.

Regarding `N#CCC1(n2cc(-c3nc(Nc4cnn(CCN5CCOCC5)c4)nc4ccsc34)cn2)CCOCC1` [Compound T-50, 2-(4-(4-(2-((1-(2-Morpholinoethyl)-1H-pyrazol-4-yl)amino)thieno[3,2-d]pyrimidin-4-yl)-1H-pyrazol-1-yl)tetrahydro-2H-pyran-4-yl)acetonitrile], the figures for the IC50 against JAK2, against JAK1 and on JAK3 were less than 50 nM, 500 to 1000 nM and 500 to 1000 nM, respectively.

Take `CCS(=O)(=O)N1CC(CC#N)(n2cc(-c3nc(Nc4cnn(CCO)c4)nc4ccsc34)cn2)C1` [Compound T-51, 2-(1-(Ethylsulfonyl)-3-(4-(2-((1-(2-hydroxyethyl)-1H-pyrazol-4-yl)amino)thieno[3,2-d]pyrimidin-4-yl)-1H-pyrazol-1-yl)azetidin-3-yl)acetonitrile]: the IC50 against JAK2, at JAK1 and on JAK3 was less than 50 nM throughout.

In the case of `CCS(=O)(=O)N1CC(CC#N)(n2cc(-c3nc(Nc4cnn(C(C)=O)c4)nc4ccsc34)cn2)C1` [Compound T-52, 2-(3-(4-(2-((1-Acetyl-1H-pyrazol-4-yl)amino)thieno[3,2-d]pyrimidin-4-yl)-1H-pyrazol-1-yl)-1-(ethylsulfonyl)azetidin-3-yl)acetonitrile], the IC50 at JAK2 was less than 50 nM; against JAK1 it was less than 50 nM; on JAK3, 50 to 500 nM.

Regarding `CCS(=O)(=O)N1CC(CC#N)(n2cc(-c3nc(Nc4cnn(CCN5CCOCC5)c4)nc4ccsc34)cn2)C1` [Compound T-53, 2-(1-(Ethylsulfonyl)-3-(4-(2-((1-(2-morpholinoethyl)-1H-pyrazol-4-yl)amino)thieno[3,2-d]pyrimidin-4-yl)-1H-pyrazol-1-yl)azetidin-3-yl)acetonitrile], the figures for the IC50 at JAK2, at JAK1 and on JAK3 were less than 50 nM, 50 to 500 nM and less than 50 nM, respectively.

What is called IC50 is the concentration that inhibits the measured activity by half.
